Laboratory results: paper PMC5016780, “Development of a Cell-penetrating Peptide that Exhibits Responsive Changes in its Secondary Structure in the Cellular Environment” (Scientific Reports, 2016)
“Also recorded” adds a separate entry of the source. Non-standard residues stand in square brackets, D forms with d. Residues, ends and D or L forms follow the SMILES beside them. *: point of attachment. 5FAM = O=C1OC2(c3ccc(O)cc3Oc3cc(O)ccc32)c2ccc(C(=O)*)cc21; Pro(cis-4-guanidino) = NC(N)=N[C@@H]1CN[C@H](C(=O)O)C1; Pro(4S-NH2) = N[C@@H]1CN[C@H](C(=O)O)C1; βAla = NCCC(=O)O

Key:
HeLa cells [1] = assay: Time course of cellular uptake (1–24 hr); assay type: cell-based; details: 37 °C, 1 μM peptide; for stability in culture medium / cellular environment, as concluded from the uptake time course: culture medium containing fetal bovine serum (FBS)
Method: The results of the cytotoxicity analysis, in which HeLa cells were treated with peptides 1–5 for 24 hr at concentrations of 1, 4, and 8 μM, are shown in Fig. S9. […] Next, we investigated the intracellular uptake pathways of R9 and peptide 3. In the presence of various endocytosis inhibitors (amiloride, a macropinocytosis inhibitor[37]; nystatin, a caveolae-mediated endocytosis inhibitor[38]; and sucrose, a clathrin-mediated endocytosis inhibitor[39]), the migration levels of R9 and 3 into the HeLa cells were compared (Fig. S10). […] Then, we investigated the intracellular localization and dynamic behavior of R9 and 3 using fluorescence microscopy. The cells’ late endosomes/lysosomes were stained with LysoTracker Red (red), and their nuclei were stained with Hoechst 33342 (blue). […] As a general approach, peptides that can change their helical structures in accordance with pH fluctuations are often used to promote escape from endosomes. […] We considered that peptide 3 might also directly penetrate the cell membrane more efficiently than R9 (R9 passes through the cell membrane via not only endocytosis but also non-endocytosis pathway, that is, direct permeation to the cell membrane)[44]. Therefore, we investigated the intracellular uptake of peptide 3 at low temperature using flow cytometry and fluorescence microscopy. At low temperature, energy-dependent pathways such as endocytosis are inhibited so it is possible to assess direct peptide penetration via energy-independent pathways. […] Peptides that can directly penetrate through the cell membrane can be used for efficient intracellular delivery as they are not affected by problems associated with the need to escape from endosomes.
Figure 5 (a) Cellular uptake of the peptides 1–5 and R9 after 1–24 hr (peptide concentration: 1 μM). Values are the means ± standard deviation of three independent cultures. (b,c) Peptide 3 and R9 were colocalized with lysosome marker. HeLa cells were treated with 10 μM peptides at 37 °C for 2 hr. The acidic late endosomes/lysosomes were stained with LysoTracker Red (red), and the nuclei were stained with Hoechst 33342 (blue). The scale bars represent 50 μm.
HeLa, A549, Jurkat and CHO-K1 cells were seeded in 6-well dishes at a density of 4.0 × 10^6 cells/well and cultured in DMEM (HeLa, A549), RPMI-1640 (Jurkat) and Ham’s F-12 (CHO-K1) for 24 hr, respectively. The cells were treated with each peptide (peptide concentration; 1 μM) and incubated for each time (1, 2, 4, 8, 16 and 24 hr). Then, the cells were washed three times with phosphate buffer (PBS) supplemented with heparin (20 units/mL) and detached by treatment of trypsin-EDTA. […] Then, the collected cells were suspended in 500 μL of PBS buffer and mean fluorescence intensity in cells was measured by flow cytometer. […]

[2] = Peptide stability in culture medium containing 10% FBS (pre-incubation uptake and LC-MS); assay type: in vitro ADME; details: 0–24 h at 37 °C, then 2 hr with HeLa cells at 37 °C (1 μM, flow cytometry), and LC-MS analysis, 1–24 hr in culture medium containing 10% FBS
Method: Figure S8. (a) Cellular uptake of the peptides 1-5 after 1-24 h pre-incubation (peptide concentration: 1 µM). Values are the means ± standard deviation of three independent Figure 5b. Cellular uptake of the peptides 1-5 LC-MS analsisys. the stability of the peptides (1-24 hr) after 1-24 hr pre-incubation. in culture media containing 10% FBS using LC-MS. cultures. (b) The peptides’ stability (1-24 hr) analysis in culture medium containing FBS using LCCytotoxicity-MS. […]

HeLa cells [3] = assay: Uptake in the presence of endocytosis inhibitors; assay type: cell-based; details: amiloride 25 μM, sucrose 0.4 M or nystatin 25 μg/mL, 1 μM peptide, 1 hr, flow cytometry
Method: The results of the cytotoxicity analysis, in which HeLa cells were treated with peptides 1–5 for 24 hr at concentrations of 1, 4, and 8 μM, are shown in Fig. S9. […] Next, we investigated the intracellular uptake pathways of R9 and peptide 3. In the presence of various endocytosis inhibitors (amiloride, a macropinocytosis inhibitor[37]; nystatin, a caveolae-mediated endocytosis inhibitor[38]; and sucrose, a clathrin-mediated endocytosis inhibitor[39]), the migration levels of R9 and 3 into the HeLa cells were compared (Fig. S10). […] Then, we investigated the intracellular localization and dynamic behavior of R9 and 3 using fluorescence microscopy. The cells’ late endosomes/lysosomes were stained with LysoTracker Red (red), and their nuclei were stained with Hoechst 33342 (blue). […] Therefore, we investigated the intracellular uptake of peptide 3 at low temperature using flow cytometry and fluorescence microscopy. […]
The cells were seeded onto 6-well culture plates (400,000 cells/well) and incubated overnight in 2 mL of DMEM containing 10% FBS. […] Then, fluorescence intensity in the cells was measured as above. […] Statistical differences were analyzed by Student’s t-test. […]
Figure S11. Fluorescence microscopy images of HeLa cells that had been treated with […]

HeLa cells [4] = assay: Intracellular localization by fluorescence microscopy (endosomal escape); assay type: cell-based; details: 10 μM peptide, 37 °C, 15 min–2 hr, LysoTracker Red and Hoechst 33342 staining
Method: The results of the cytotoxicity analysis, in which HeLa cells were treated with peptides 1–5 for 24 hr at concentrations of 1, 4, and 8 μM, are shown in Fig. S9. […] Next, we investigated the intracellular uptake pathways of R9 and peptide 3. In the presence of various endocytosis inhibitors (amiloride, a macropinocytosis inhibitor[37]; nystatin, a caveolae-mediated endocytosis inhibitor[38]; and sucrose, a clathrin-mediated endocytosis inhibitor[39]), the migration levels of R9 and 3 into the HeLa cells were compared (Fig. S10). […] Then, we investigated the intracellular localization and dynamic behavior of R9 and 3 using fluorescence microscopy. The cells’ late endosomes/lysosomes were stained with LysoTracker Red (red), and their nuclei were stained with Hoechst 33342 (blue). […] As a general approach, peptides that can change their helical structures in accordance with pH fluctuations are often used to promote escape from endosomes. […] Therefore, we investigated the intracellular uptake of peptide 3 at low temperature using flow cytometry and fluorescence microscopy. […]
Figure S11. Fluorescence microscopy images of HeLa cells that had been treated with 10 µM of peptides [(a) peptide 3, (b) R9, (c) peptide 2] for 15 min-2 hr at 37 °C. […]
Figure S12. Fluorescence microscopy images of HeLa cells that had been treated with 10 µM of peptides [(a) R9, (b) peptide 3, (c) peptide 2] for 2 hr at 37 °C. […]

Compound | stability in culture medium / cellular environment, as concluded from the uptake time course (HeLa cells [1]) | cell-penetrating ability and stability after pre-incubation in medium (in words) [2] | effect of endocytosis inhibitors on uptake (in words) (HeLa cells [3]) | endosomal escape / localization (in words) (HeLa cells [4]) | cellular uptake over incubation time (in words) (HeLa cells [1]; medium containing FBS, flow cytometry, three independent cultures)
N=C(N)NCCC[C@H](NC(=O)CCNC(=O)c1ccc2c(c1)C(=O)OC21c2ccc(O)cc2Oc2cc(O)ccc21)C(=O)N[C@@H](CCCNC(=N)N)C(=O)N1C[C@@H](NC(=N)N)C[C@H]1C(=O)N1C[C@@H](NC(=N)N)C[C@H]1C(=O)N[C@@H](CCCNC(=N)N)C(=O)N[C@@H](CCCNC(=N)N)C(=O)N[C@@H](CCCNC(=N)N)C(=O)N[C@@H](CCCNC(=N)N)C(=O)N1C[C@@H](NC(=N)N)C[C@H]1C(=O)NCC(=O)NCC(=O)NCC(N)=O [peptide 4, FAM-β-Ala-(L-Arg)2-(L-Pro^Gu)2-(L-Arg)4-L-Pro^Gu-(Gly)3-NH2] ({5FAM-βAla}-RR[Pro(cis-4-guanidino)][Pro(cis-4-guanidino)]RRRR[Pro(cis-4-guanidino)]GGG-NH2) | more stable than R9 | – | – | – | –
N=C(N)NCCC[C@H](NC(=O)CCNC(=O)c1ccc2c(c1)C(=O)OC21c2ccc(O)cc2Oc2cc(O)ccc21)C(=O)N[C@@H](CCCNC(=N)N)C(=O)N1C[C@@H](N)C[C@H]1C(=O)N[C@@H](CCCNC(=N)N)C(=O)N[C@@H](CCCNC(=N)N)C(=O)N1C[C@@H](N)C[C@H]1C(=O)N[C@@H](CCCNC(=N)N)C(=O)N[C@@H](CCCNC(=N)N)C(=O)N1C[C@@H](N)C[C@H]1C(=O)NCC(=O)NCC(=O)NCC(N)=O [peptide 2, FAM-β-Ala-(L-Arg-L-Arg-L-Pro^NH2)3-(Gly)3-NH2] ({5FAM-βAla}-RR[Pro(4S-NH2)]RR[Pro(4S-NH2)]RR[Pro(4S-NH2)]GGG-NH2) | – | more chemically stable than R9 and peptide 1 | – | – | –
N=C(N)NCCC[C@H](NC(=O)CCNC(=O)c1ccc2c(c1)C(=O)OC21c2ccc(O)cc2Oc2cc(O)ccc21)C(=O)N[C@@H](CCCNC(=N)N)C(=O)N1C[C@@H](NC(=N)N)C[C@H]1C(=O)N[C@@H](CCCNC(=N)N)C(=O)N[C@@H](CCCNC(=N)N)C(=O)N1C[C@@H](NC(=N)N)C[C@H]1C(=O)N[C@@H](CCCNC(=N)N)C(=O)N[C@@H](CCCNC(=N)N)C(=O)N1C[C@@H](NC(=N)N)C[C@H]1C(=O)NCC(=O)NCC(=O)NCC(N)=O [peptide 3, FAM-β-Ala-(L-Arg-L-Arg-L-Pro^Gu)3-(Gly)3-NH2] ({5FAM-βAla}-RR[Pro(cis-4-guanidino)]RR[Pro(cis-4-guanidino)]RR[Pro(cis-4-guanidino)]GGG-NH2) | more stable than R9 | more chemically stable than R9 and peptide 1; also recorded: remained stable in the medium containing FBS | – | – | –
nona-arginine [R9, reference compound] | unstable | sharply fell as the pre-incubation time increased | decreased by treatment with amiloride or sucrose | co-localized with the late endosomes/lysosomes | gradually decreased after 1-hr incubation
N=C(N)NCCC[C@H](NC(=O)CCNC(=O)c1ccc2c(c1)C(=O)OC21c2ccc(O)cc2Oc2cc(O)ccc21)C(=O)N[C@@H](CCCNC(=N)N)C(=O)N1CCC[C@H]1C(=O)N[C@@H](CCCNC(=N)N)C(=O)N[C@@H](CCCNC(=N)N)C(=O)N1CCC[C@H]1C(=O)N[C@@H](CCCNC(=N)N)C(=O)N[C@@H](CCCNC(=N)N)C(=O)N1CCC[C@H]1C(=O)NCC(=O)NCC(=O)NCC(N)=O [peptide 1, FAM-β-Ala-(L-Arg-L-Arg-L-Pro)3-(Gly)3-NH2] (HELM PEPTIDE1{[O=C1OC2(c3ccc(O)cc3Oc3cc(O)ccc32)c2ccc(C(=O)[*:2])cc21].[bAla].R.R.P.R.R.P.R.R.P.G.G.G.[am]}$$$$V2.0) | – | sharply fell as the pre-incubation time increased | – | – | –
